The values that follow come from the NIST ThermoML archive (doi:10.1016/j.fluid.2009.01.012).

Numbers after ± are expanded uncertainties.

For the series the following is noted: DTA.

With `CC(C)C[P+](C)(CC(C)C)CC(C)C.Cc1ccc(S(=O)(=O)[O-])cc1` [triisobutylmethylphosphonium p-toluenesulfonate], the Glass transition temperature was -47.6 ± 5 °C.
